Test results reported in patent US11253527B2, “Method and composition for inhibiting virus infection” (priority 2019, dated 2022).

Test system: HBV
Assay: HBV replication, assembly, secretion in HepG2.2.15 cells (HBsAg/HBeAg ELISA, HBV DNA real-time PCR)
Assay type: cell-based, Hepatitis B virus
Description: (§1) HepG2.2.15 cells were cultured with different concentrations of Antrodia camphorata fruit body extracts for 48 h, then the culture medium was collected to measure HBV HBsAg by ELISA. HepG2, containing no HBV, was used as a negative control (NC). The results are expressed as a percentage of the non-drug-treated positive control (NT) and are shown as mean±SD for three independent experiments. *, P<0.05; **, P<0.01; ***, P<0.001.
as §1, with “HBeAg” for “HBsAg”
as §1, with “DNA” for “HBsAg”, “real-time PCR. Plasmid p1.3HBcl, which contains a 1.3-fold HBV genome (ayw subtype (Galibert et al., 1979)), was used as standard in parallel PCR reactions, while” for “ELISA.”
Continuous HBV proliferation can be achieved in HepG2.2.15 cells (RRID:CVCL_L855) stably transfected with the HBV genome of the adw2 subtype. HepG2.2.15 cells are used because of the unlimited supply and constant quality and were maintained in Dulbecco's modified Eagle medium (DMEM; Invitrogen) supplemented with 10% heat-inactivated fetal bovine serum (FBS; Thermo) plus 100 units of penicillin and 100 µg of streptomycin per ml (both from Invitrogen).
The culture medium from drug-treated HepG2.2.15 cells is clarified by centrifugation at 1,000×g at 4° C. for 10 min, and then the supernatant is layered on top of a 20% sucrose cushion (20% sucrose, 20 mM HEPES, pH 7.4, 0.1% bovine serum albumin [BSA]) and centrifuged at 197,000×g for 3 h at 4° C. to pellet the HBV particles, which are then concentrated 100 fold to detect HBV DNA.
Total DNA is extracted with a Genomic DNA isolation kit (Nexttec Biotechnologie, Germany). Total RNA is isolated from cultured cells using TRIzol® reagent (Invitrogen). Reverse transcription is performed with the RNA templates, AMV reverse transcriptase (Roche), and oligo-dT primer. The products are subjected to real-time PCR with primer sets of specific genes and SYBR Green PCR Master Mix (Bio-Rad). The primer sets used for HBV core, HBsAg, cccDNA and GAPDH are described. The results are analyzed with the iCycler iQ real-time PCR detection system (Bio-Rad). Plasmid p1.3HBcl is prepared at 10-fold dilutions (2*10^4-2*10^9 […] to generate a standard curve in parallel PCR reactions.
To test whether Antrodia camphorata fruit body extracts had any effect on HBV genome replication, assembly, or secretion, HepG2.2.15 cells, which stably transfected with HBV genome, were used to incubate with four Antrodia camphorata fruit body extracts for 48 hours, then HBsAg, HBeAg and HBV DNA collected from medium were measured by ELISA and real-time PCR.

[1] = 48 h, at 20 μg/ml and 50 μg/ml, percentage of non-drug-treated control

Structure (SMILES): C=C(CC[C@@H](C)[C@H]1CC[C@H]2C3=C(C(=O)C[C@]12C)[C@@]1(C)CCC(O)[C@](C)(O)C1CC3O)C(C)C(=O)O (stereo partly shown) [A4, antcin K]
- HBV replication, the assembly or release of viral particles: significantly inhibits
- HBV DNA repressed to (48 h, 50 μg/ml, percentage of non-drug-treated control): 55%
- level of HBeAg in the culture supernatant, decreased to [1]: 50-60%
- level of HBsAg in the culture supernatant, decreased to [1]: 50-60%
- HBsAg protein levels, dose dependence (FIG. 2A): marked dose-dependent reduction
- core protein levels, dose dependence (FIG. 2B): marked dose-dependent reduction
- HBV DNA in particles, dose dependence (FIG. 2C): marked dose-dependent reduction
